Patent US20140220566A1, “MATERIALS AND METHODS FOR DETERMINING SENSITIVITY POTENTIAL OF COMPOUNDS” (ELECTROPHORETICS LIMITED, priority 2011, published 2014)

Tests used:
[1] = system: Myeloperoxidase (MPO); test: Myeloperoxidase ELISA in supernatant of Mutz-3 cells; type: cell-based, human; settings: FIG. 4
Excerpt: (§1) As an alternative approach to find predictive markers for sensitizing potential we explored the potential of cell culture supernatants as a source of markers for chemical safety by adopting a more targeted approach using commercially available immunoassays to measure the levels of three known inflammatory markers. The three proteins to be measured by ELISA were selected on the basis of a review of literature references to secreted inflammatory protein response to chemical sensitizer. Cells were cultured as described in Example 1 and the spent medium removed for direct analysis by ELISA. All kits were used in accordance with manufacturer's instructions.
MPO is a peroxidase enzyme which is stored in lysosomes and released during inflammation Myeloperoxidase was measured by ELISA (Assay-Designs) (FIG. 4).

[2] = system: MUTZ-3 cells; test: PLS score plot of proteomic response, fourth study; type: cell-based, human; settings: FIG. 3, ANOVA filtered protein list
Experimental: In the fourth study (40-002—8) Mutz-3 cells were incubated with 2 contact sensitizer (120 μM cinnamic aldehyde, 4 μM DNCB), 1 respiratory sensitizer (150 μM TMA), 1 irritant (200 μM SDS) and 1 controls (untreated).
A preferred method for classification of chemicals is employing partial least squares regression analysis (PLS). PLS discriminant analysis identifies the most important classifiers from the list of interest. A model was built using the response variables (y) highlighted in red and the ANOVA filtered proteins as predictors (x). The first PLS components (x-axis) was plotted against the second PLS component (y-axis) and separated the biomarkers having a role in classifying the three experimental groups “control”, “irritant” and sensitizer”.
In the score plot each point represents one 1 sample. Based on the ANOVA filtered protein list samples a good separation between control, sensitizer and irritant treated samples was achieved.

[3] = system: dendritic cell lines; settings: Mitjans et al. 2009; cited from earlier work
[4] = system: Calprotectin (S100A8/S100A9); test: Calprotectin immunoassay in supernatant of Mutz-3 cells; type: cell-based, human; settings: FIG. 5
Excerpt: as §1
Calprotectin is heterodimer of S100A8/S100A9 was measured in supernatant of Mutz-3 cells by a commercially available immunoassay (Immundiagnostik AG, Bensheim, Germany) (FIG. 5). Calprotectin is actively secreted by phagocytes in response to stress and binds to Toll-like receptor 4 (TLR4). Toll-like receptors play an important role in the innate immune system and activation of TLR4 by calprotectin further amplifies inflammation (Ehrchen et al. 2009). TLR4 and interleukin 12 double knock-out mice, show a marked decrease of DC-sensitization by a broad range of different sensitizers including 2,4,6-trinitro-1-chlorobenzene (TNCB), oxazolone, and fluorescein isothiocyanate (Martin et al. 2008). […]

Compound | MPO release into supernatant of Mutz-3 cells [1] | relative distance of treated samples from control in PLS score plot [2] | response of the IL-8 assay [3] | S100A8/S100A9 (calprotectin) levels in supernatant of Mutz-3 cells [4]
O=C(O)c1ccc2c(c1)C(=O)OC2=O [TMA, Trimellitic anhydride] | does not activate this pathway | smaller distance to control sample | fails to respond | 
O=[N+]([O-])c1ccc(Cl)c([N+](=O)[O-])c1 [DNCB, 1-chloro-2,4-dinitrobenzene] | activates an inflammatory pathway involving release of the peroxidase enzyme MPO | greatest relative distance from the control |  | modulated
